Data as given in patent publication US6914045B2, “Glycopeptide antibiotics” (Wyeth Holdings Corporation, priority 2001, dated 2005).
≈ marks a conversion by molar mass, not a printed value.

Columns and labels:
Assay in all cases: in vitro antibacterial evaluation, MIC by broth dilution
Type in all cases: cell-based
Enterococcus sp. = settings: broth dilution, 18 hours at 35° C.; for MIC Enterococcus faecalis (ATCC 29212): strain ATCC 29212; for MIC Enterococcus faecalis (GC 2242): strain GC 2242; for MIC Enterococcus faecium (GC 2243): strain GC 2243; for MIC Enterococcus faecalis (GC 2691): strain GC 2691; for MIC Enterococcus faecalis (GC 3059): strain GC 3059; for MIC Enterococcus faecalis (GC 4552): strain GC 4552; for MIC Enterococcus faecalis (GC 4553): strain GC 4553; for MIC Enterococcus faecalis (GC 4554): strain GC 4554; for MIC Enterococcus faecium (GC 4556): strain GC 4556; for MIC Enterococcus faecium (GC 4557): strain GC 4557; for MIC Enterococcus avium (GC 4558): strain GC 4558; for MIC Enterococcus faecalis (GC 6189): strain GC 6189
Summary of the method: (§1)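 MIC, the lowest antibiotic concentration preventing growth, was read across 64-0.06 μg/mL with 5×10^5 CFU/mL inoculum. Method followed NCCLS M7-A2 broth dilution using Mueller-Hinton II; Gram-positive strains covered recent methicillin-, penicillin- and/or vancomycin-resistant clinical isolates.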

Escherichia coli = test system: Escherichia coli
Summary of the method: as §1

Staphylococcus sp. = settings: broth dilution, 18 hours at 35° C.; for MIC Staphylococcus aureus (GC 1131): strain GC 1131
Summary of the method: as §1

Streptococcus sp. = settings: broth dilution, 18 hours at 35° C.; for MIC Streptococcus pneumoniae (ATCC 6301): strain ATCC 6301; for MIC Streptococcus pneumoniae (GC 1894): strain GC 1894; for MIC Streptococcus pyogenes (GC 4563): strain GC 4563; for MIC Streptococcus agalactiae (GC 4564): strain GC 4564; for MIC Streptococcus pneumoniae (GC 4565): strain GC 4565
Summary of the method: as §1

CCOc1cc(C2OCC3OC(OC4C(CO)OC(Oc5ccc(CC6NC(=O)C(C(C)c7ccccc7)NC(=O)CNC(=O)C(CO)NC(=O)C(C(O)C7CNC(=N)N7C7OC(CO)C(O)C(O)C7O)NC(=O)C(C(O)C7CNC(=N)N7)NC6=O)cc5)C(O)C4O)C(O)C(O)C3O2)ccc1[N+](=O)[O-] (centres unmarked) [Example 167]
MIC Enterococcus faecalis (ATCC 29212) (Enterococcus sp.; inoculum 5×10^5 CFU/mL): 32 µg/mL (≈ 21.7 µM) | MIC Enterococcus faecalis (GC 2242) (Enterococcus sp.; inoculum 5×10^5 CFU/mL): 32 µg/mL (≈ 21.7 µM) | MIC Enterococcus faecium (GC 2243) (Enterococcus sp.; inoculum 5×10^5 CFU/mL): 32 µg/mL (≈ 21.7 µM) | MIC Enterococcus faecalis (GC 2691) (Enterococcus sp.; inoculum 5×10^5 CFU/mL): 32 µg/mL (≈ 21.7 µM) | MIC Enterococcus faecalis (GC 3059) (Enterococcus sp.; inoculum 5×10^5 CFU/mL): 32 µg/mL (≈ 21.7 µM) | MIC Enterococcus faecalis (GC 4552) (Enterococcus sp.; inoculum 5×10^5 CFU/mL): 32 µg/mL (≈ 21.7 µM) | MIC Enterococcus faecalis (GC 4553) (Enterococcus sp.; inoculum 5×10^5 CFU/mL): 32 µg/mL (≈ 21.7 µM) | MIC Enterococcus faecalis (GC 4554) (Enterococcus sp.; inoculum 5×10^5 CFU/mL): 32 µg/mL (≈ 21.7 µM) | MIC Enterococcus faecium (GC 4556) (Enterococcus sp.; inoculum 5×10^5 CFU/mL): 32 µg/mL (≈ 21.7 µM) | MIC Enterococcus faecium (GC 4557) (Enterococcus sp.; inoculum 5×10^5 CFU/mL): 8 µg/mL (≈ 5.43 µM) | MIC Enterococcus avium (GC 4558) (Enterococcus sp.; inoculum 5×10^5 CFU/mL): 32 µg/mL (≈ 21.7 µM) | MIC Enterococcus faecalis (GC 6189) (Enterococcus sp.; inoculum 5×10^5 CFU/mL): 32 µg/mL (≈ 21.7 µM) | MIC Enterococcus faecalis (ATCC 29212) (Enterococcus sp.): 32 µg/mL (≈ 21.7 µM) | MIC Enterococcus faecalis (GC 2242) (Enterococcus sp.): 32 µg/mL (≈ 21.7 µM) | MIC Enterococcus faecium (GC 2243) (Enterococcus sp.): 32 µg/mL (≈ 21.7 µM) | MIC Enterococcus faecalis (GC 2691) (Enterococcus sp.): 32 µg/mL (≈ 21.7 µM) | MIC Enterococcus faecalis (GC 3059) (Enterococcus sp.): 32 µg/mL (≈ 21.7 µM) | MIC Enterococcus faecalis (GC 4552) (Enterococcus sp.): 32 µg/mL (≈ 21.7 µM) | MIC Enterococcus faecalis (GC 4553) (Enterococcus sp.): 32 µg/mL (≈ 21.7 µM) | MIC Enterococcus faecalis (GC 4554) (Enterococcus sp.): 32 µg/mL (≈ 21.7 µM) | MIC Enterococcus faecium (GC 4556) (Enterococcus sp.): 32 µg/mL (≈ 21.7 µM) | MIC Enterococcus faecium (GC 4557) (Enterococcus sp.): 8 µg/mL (≈ 5.43 µM) | MIC Enterococcus avium (GC 4558) (Enterococcus sp.): 32 µg/mL (≈ 21.7 µM) | MIC Enterococcus faecalis (GC 6189) (Enterococcus sp.): 32 µg/mL (≈ 21.7 µM) | MIC Escherichia coli (ATCC 25922) (Escherichia coli; strain ATCC 25922, 18 hours at 35° C.): >128 µg/mL | MIC Escherichia coli (GC 4559) (Escherichia coli; strain GC 4559, 18 hours at 35° C.): >128 µg/mL | MIC Escherichia coli (GC 4560) (Escherichia coli; strain GC 4560, 18 hours at 35° C.): 8 µg/mL (≈ 5.43 µM) | MIC Staphylococcus aureus (GC 1131) (Staphylococcus sp.; inoculum 5×10^5 CFU/mL): 16 µg/mL (≈ 10.9 µM) | MIC Staphylococcus aureus (ATCC 29213) (Staphylococcus sp.; strain ATCC 29213): 16 µg/mL (≈ 10.9 µM) | MIC Staphylococcus aureus (GC 1131) (Staphylococcus sp.): 16 µg/mL (≈ 10.9 µM) | MIC Staphylococcus aureus (GC 3051) (Staphylococcus sp.; strain GC 3051): 16 µg/mL (≈ 10.9 µM) | MIC Staphylococcus aureus (GC 3053) (Staphylococcus sp.; strain GC 3053): 16 µg/mL (≈ 10.9 µM) | MIC Staphylococcus aureus (GC 4541) (Staphylococcus sp.; strain GC 4541): 8 µg/mL (≈ 5.43 µM) | MIC Staphylococcus aureus (GC 4542) (Staphylococcus sp.; strain GC 4542): 16 µg/mL (≈ 10.9 µM) | MIC Staphylococcus aureus-SMITH (GC 4543) (Staphylococcus sp.; strain GC 4543): 16 µg/mL (≈ 10.9 µM) | MIC Staphylococcus aureus (GC 4544) (Staphylococcus sp.; strain GC 4544): 16 µg/mL (≈ 10.9 µM) | MIC Staphylococcus aureus (GC 4545) (Staphylococcus sp.; strain GC 4545): 16 µg/mL (≈ 10.9 µM) | MIC Staphylococcus haemolyticus (GC 4546) (Staphylococcus sp.; strain GC 4546): 16 µg/mL (≈ 10.9 µM) | MIC Coagulase Negative Staphylococcus (GC 4547) (Staphylococcus sp.; strain GC 4547): 8 µg/mL (≈ 5.43 µM) | MIC Coagulase Negative Staphylococcus (GC 4548) (Staphylococcus sp.; strain GC 4548): 8 µg/mL (≈ 5.43 µM) | MIC Coagulase Negative Staphylococcus (GC 4549) (Staphylococcus sp.; strain GC 4549): 8 µg/mL (≈ 5.43 µM) | MIC Coagulase Negative Staphylococcus (GC 4551) (Staphylococcus sp.; strain GC 4551): 16 µg/mL (≈ 10.9 µM) | MIC Coagulase Negative Staphylococcus (GC 6257) (Staphylococcus sp.; strain GC 6257): 8 µg/mL (≈ 5.43 µM) | MIC Streptococcus pneumoniae (ATCC 6301) (Streptococcus sp.; inoculum 5×10^5 CFU/mL): 1 µg/mL (≈ 0.679 µM) | MIC Streptococcus pneumoniae (GC 1894) (Streptococcus sp.; inoculum 5×10^5 CFU/mL): 0.25 µg/mL (≈ 0.17 µM) | MIC Streptococcus pyogenes (GC 4563) (Streptococcus sp.; inoculum 5×10^5 CFU/mL): 1 µg/mL (≈ 0.679 µM) | MIC Streptococcus agalactiae (GC 4564) (Streptococcus sp.; inoculum 5×10^5 CFU/mL): 2 µg/mL (≈ 1.36 µM) | MIC Streptococcus pneumoniae (GC 4565) (Streptococcus sp.; inoculum 5×10^5 CFU/mL): 1 µg/mL (≈ 0.679 µM) | MIC Streptococcus pneumoniae (ATCC 6301) (Streptococcus sp.): 1 µg/mL (≈ 0.679 µM) | MIC Streptococcus pneumoniae (GC 1894) (Streptococcus sp.): 0.25 µg/mL (≈ 0.17 µM) | MIC Streptococcus pyogenes (GC 4563) (Streptococcus sp.): 1 µg/mL (≈ 0.679 µM) | MIC Streptococcus agalactiae (GC 4564) (Streptococcus sp.): 2 µg/mL (≈ 1.36 µM) | MIC Streptococcus pneumoniae (GC 4565) (Streptococcus sp.): 1 µg/mL (≈ 0.679 µM)
